{"source": "patent US20260345593A1", "about": "“ORAL FORMULATION OF N-PYRIDINYL ACETAMIDE DERIVATIVE FOR TREATING INTERSTITIAL LUNG DISEASE” (AstraZeneca AB, priority 2022, published 2026)", "key": {"[1]": {"assay": "oral bioavailability in several animal species", "conditions": "in vivo, read-out: observed oral bioavailability"}, "[2]": {"conditions": "cited from earlier work"}, "healthy subjects [3]": {"tested_on": "healthy subjects", "assay": "Example 1 Part 2 (MAD): safety in healthy subjects", "type": "in vivo, human", "experimental": "Part 2 comprises a Screening Period of a maximum of 6 weeks. This is followed by a treatment period during which subjects are resident at the Clinical Unit from 1 day before IMP administration (Day −1) until at least 72 hours after the last dose given on Day 16 (Day 19). Subjects are dosed for a total of 15 days and receive a single once daily morning dose of AZD5055 or placebo on Day 1 and on Days 3 through Day 16, with no dosing on Day 2. This is followed up a Follow-up Visit within 6±1 day after the IMP dose, and an additional Follow-up Visit within 29±2 days after the last IMP dose.\nFor cohorts with QD dosing regimens, the Screening Period is followed by a Treatment Period during which subjects are resident at the Clinical Unit from 1 day before IMP administration (Day −1) until at least 72 hours after the last dose given on Day 16 (Day 19). Subjects are dosed for a total of 15 days, receiving a single QD morning dose of AZD5055 or placebo on Day 1 and on Days 3 through Day 16.\nFor cohorts with BID dosing regimens, the Screening Period is followed by a Treatment Period during which subjects are resident at the Clinical Unit from 1 day before IMP administration (Day −1) until at least 72 hours after the last dose given on Day 16 (Day 19).\nSubjects are dosed for a total of 15 days, receiving a single morning dose of AZD5055 or placebo on Day 1 and Day 16, and repeated BID dosing on Day 3 through Day 15, 12 hours (±30 minutes) apart.\nFor both cohorts, the Treatment Period is followed by a Follow-up Visit within 6±1 day after the last IMP dose, and an additional Follow-up Visit within 29±2 days after the last IMP dose.\n(§1) The study was conducted in healthy male and healthy female subjects of non-childbearing potential with suitable veins for cannulation or repeated venipuncture. […] Also, the subjects were aged 18 to 55 years inclusive for men and women in Part 1 and only men in Part 2. For female subjects in Part 2, the age range was 18 to 49 years inclusive.\n(§2) In Part 1 of the study, 3 dose levels of AZD5055 were investigated in 3 cohorts. Each cohort included 8 subjects. Within each cohort, 6 subjects were randomized to receive AZD5055, and 2 subjects were randomized to receive placebo. In Part 2 of the study, 3 dose levels of AZD5055 were investigated in 3 cohorts. In each cohort, 9 subjects were randomized to receive AZD5055, and 3 subjects were randomized to receive placebo.\n(§3) Safety endpoints included adverse events; vital signs (supine blood pressure, pulse, respiratory rate, and body temperature); 12-lead ECG, 12-lead dECG, telemetry, physical examinations, clinical laboratory assessments (hematology, clinical chemistry [including serum creatinine and creatine phosphokinase], urinalysis [including protein and albumin creatinine ratios], and cardiac biomarkers [including cardiac Troponin T (cTNT), cardiac Troponin I; (cTNI), and B type natriuretic peptide]), and peripheral oxygen saturation (SpO2).\n(§4) All safety data (scheduled and unscheduled) were presented in the data listings. Continuous variables were summarized using descriptive statistics (n, mean, standard deviation, min, median, max) by treatment. Categorical variables were summarized in frequency tables (frequency and proportion) by treatment (both Parts 1 and 2). The analysis of the safety variables was based on the safety analysis set. Adverse events were summarized by System Organ Class (SOC) and Preferred Term (PT) using Medical Dictionary for Regulatory Activities vocabulary. Furthermore, listings of serious adverse events (SAEs) and adverse events leading to the discontinuation of IMP (DAEs) were made and the number of subjects who had any adverse events (AEs), SAEs, DAEs and AEs with severe intensity were summarized. Adverse events that occur before dosing were reported separately. Tabulations and listings of data for ECG, vital signs, AEs, and clinical laboratory tests, measurements were presented."}, "healthy subjects [4]": {"tested_on": "healthy subjects", "assay": "Example 1 Part 1 (SAD): safety in healthy subjects", "type": "in vivo, human", "experimental": "Part 1 comprises a Screening Period of a maximum of 6 weeks. This is followed by a Treatment Period during which subjects are resident at the Clinical Unit from 1 day before investigational medicinal product (IMP) administration (Day −1) until at least 72 hours after IMP administration (Day 4). Subjects receive a single oral dose of AZD5055 or placebo on Day 1. This is followed by a Follow-up Visit within 6±1 day after the IMP dose.\nas §1, §2, §3, §4"}, "CYP3A4": {"tested_on": "CYP3A4", "assay": "Example 1: 4-β-hydroxy-cholesterol levels in blood (CYP3A4 activity)", "type": "in vivo, human", "conditions": "healthy subjects", "from_the_text": "Change from baseline in 4-β-hydroxy-cholesterol levels in blood.\nPlasma 4-β-hydroxy-cholesterol levels at baseline and the last day of dosing were statistically analyzed using a linear mixed model analysis of covariance with treatment as a fixed effect and the baseline concentration of 4-β-hydroxy-cholesterol as covariate."}, "[5]": {"tested_on": "carbon tetrachloride-induced hepatic fibrosis in mice", "conditions": "mice (Bunyard 2019); cited from earlier work"}, "[6]": {"tested_on": "mouse bleomycin in vivo pulmonary fibrosis", "conditions": "mouse bleomycin in vivo study (Bunyard 2019); cited from earlier work"}, "[7]": {"conditions": "Part 2, across all AZD5055 doses"}, "[8]": {"conditions": "Part 1, across all AZD5055 doses"}}}
{"smiles": "Cc1cc(-c2nccc3c2ccn3CC(=O)Nc2ccc(-c3cnccn3)cn2)ccn1", "note": "[AZD5055, 2-[4-(2-methyl-4-pyridyl)pyrrolo[3,2-c]pyridin-1-yl]-N-(5-pyrazin-2-yl-2-pyridyl)acetamide]", "values": [{"measurement": "bioavailability", "setting": "[1]", "result": "40 to 60", "unit": "%"}, {"measurement": "solubility", "setting": "[2]", "result": "pH dependent"}, {"measurement": "tolerability", "setting": "healthy subjects [3]; 5, 15 and 20 mg QD, oral suspension", "result": "well tolerated at all administered doses"}, {"measurement": "AE intensity, majority of AEs", "setting": "healthy subjects [3]; Part 2", "result": "Grade 1 (mild)"}, {"measurement": "AEs leading to discontinuation of AZD5055", "setting": "healthy subjects [3]; Part 2", "result": 3, "unit": "AEs"}, {"measurement": "SAEs or deaths", "setting": "healthy subjects [3]; Part 2", "result": "no SAEs or deaths"}, {"measurement": "clinical laboratory results, vital signs, physical examinations, ECGs", "setting": "healthy subjects [3]; Part 2", "result": "No clinically relevant trends"}, {"measurement": "trends for AEs by SOC or PT", "setting": "healthy subjects [3]; Part 2", "result": "no notable trends"}, {"measurement": "subjects with AE of ventricular tachycardia/non-sustained ventricular tachycardia, Grade 2, possibly related", "setting": "healthy subjects [3]; Part 2, 5 mg dose", "result": "Two"}, {"measurement": "subjects with AE of coronavirus infection, Grade 1, not considered related", "setting": "healthy subjects [3]; Part 2, 15 mg dose", "result": "One"}, {"measurement": "AEs possibly related to AZD5055, total", "setting": "healthy subjects [3]; [7]", "result": 7, "unit": "AEs"}, {"measurement": "subjects with an AE of Grade 2 (moderate) intensity", "setting": "healthy subjects [3]; [7]", "result": 5, "unit": "subjects"}, {"measurement": "subjects with at least one AE", "setting": "healthy subjects [3]; [7]", "result": 21, "unit": "subjects"}, {"measurement": "AE outcome", "setting": "healthy subjects [3]; Part 2, all AEs, by end of study", "result": "recovered/resolved by the end of the study"}, {"measurement": "possibly related AEs: breath odour", "setting": "healthy subjects [3]; Part 2, number of AEs", "result": 1}, {"measurement": "possibly related AEs: dysgeusia", "setting": "healthy subjects [3]; Part 2, number of AEs", "result": 1}, {"measurement": "possibly related AEs: headache", "setting": "healthy subjects [3]; Part 2, number of AEs", "result": 3}, {"measurement": "possibly related AEs: photophobia", "setting": "healthy subjects [3]; Part 2, number of AEs", "result": 1}, {"measurement": "possibly related AEs: ventricular tachycardia", "setting": "healthy subjects [3]; Part 2, number of AEs", "result": 2}, {"measurement": "AEs possibly related to AZD5055", "setting": "healthy subjects [4]; Part 1", "result": "dizziness, ventricular tachycardia, wheezing, upper abdominal pain, vomiting, and nausea"}, {"measurement": "clinical laboratory results, vital signs, physical examinations, ECGs", "setting": "healthy subjects [4]; Part 1", "result": "No clinically relevant trends"}, {"measurement": "trends for AEs by SOC or PT", "setting": "healthy subjects [4]; Part 1", "result": "no notable trends"}, {"measurement": "subjects with at least one AE", "setting": "healthy subjects [4]; [8]", "result": 4, "unit": "subjects"}, {"measurement": "subjects with at least one AE possibly related to AZD5055", "setting": "healthy subjects [4]; [8]", "result": 3, "unit": "subjects"}, {"measurement": "subjects with at least one AE possibly related to AZD5055, percent", "setting": "healthy subjects [4]; [8]", "result": 16.7, "unit": "%"}, {"measurement": "subjects with at least one AE, percent", "setting": "healthy subjects [4]; [8]", "result": 22.2, "unit": "%"}, {"measurement": "AE intensity", "setting": "healthy subjects [4]; Part 1, all AEs", "result": "Grade 1 (mild)"}, {"measurement": "AE outcome", "setting": "healthy subjects [4]; Part 1, all AEs, by end of study", "result": "recovered/resolved by the end of the study"}, {"measurement": "SAEs, deaths, AEs leading to discontinuation or withdrawal", "setting": "healthy subjects [4]; Part 1, all doses", "result": "no SAEs, deaths, or AEs leading to discontinuation of AZD5055 or withdrawal from the study"}, {"measurement": "tolerability", "setting": "healthy subjects [4]; single oral suspension dose 7, 20 and 40 mg, n=6 per dose level", "result": "well-tolerated"}, {"measurement": "effect on 4-β-hydroxy-cholesterol", "setting": "CYP3A4; 14 days of once daily dosing", "result": "no effect on 4-β-hydroxy-cholesterol"}, {"measurement": "effect on CYP3A4 activity", "setting": "CYP3A4; inferred from 4-β-hydroxy-cholesterol", "result": "no significant effect on CYP3A4 activity"}, {"measurement": "carbon tetrachloride-induced hepatic fibrosis", "setting": "[5]", "result": "reduces"}, {"measurement": "pulmonary fibrosis", "setting": "[6]", "result": "reduced pulmonary fibrosis"}]}
